Results from PMC4786809, “Determination of cyanidin 3-glucoside in rat brain, liver and kidneys by UPLC/MS-MS and its application to a short-term pharmacokinetic study” (Scientific Reports, 2016).
Several values for one entry are separate records, joined by “and”; a condition that tells them apart may be missing. Equal values may be shown once.

Test: Kidney concentrations and tissue pharmacokinetics after intravenous C3G
Format: in vivo, Wistar rats
Description: Twenty-two male Wistar rats (Rattus Norvegicus, Harlan Italy S.r.l.), of same age (15 weeks), 293–390 g of body weight, were used. The rats were randomly divided into 5 groups, according to the time that elapsed after intravenous administration of the test compound, and one control group. Each time point was represented by four biological replicates. All animals were allowed to acclimate to the animal facility of the University of Trieste for at least 2 week before studies were initiated. The experimental design was vetted and approved by the bioethical committee of the University of Trieste (internal code 140PAS14), according to the provisions of the European Community Council Directive 2010/63/EU[39]. The methods were carried out in accordance with the approved guidelines. The animals (n = 22) were maintained in cages in a room at 23 ± 2 °C, 50–60% humidity with a 12-hour light-dark cycle. The night before the experiment, food was withdrawn from the cages but water was given ad libitum. On the day of the experiment, the rats were anesthetized with intra-peritoneal administration of tiletamine/zolazepam (1:1, 25 mg/kg body weight) and xylazine (10 mg/kg body weight). During anaesthesia (10 min in all cases), the heart and ventilation rate were monitored. The rats were placed on their backs, with the ventral side up and with the legs spread separately on a thermo-isolated support. The penis was extruded by sliding the prepuce downwards. The dorsal penis vein was then seen along both sides of the penis and exactly 10 min after anaesthesia 0.2 mL PBS without (control group) or with (treated group) 668 nmol cyanidin 3-glucoside (C3G) in PBS was injected using a 24-G hypodermic needle. Then the injection site was pressed with a swab for a few seconds, and the glans was encouraged to retract to prevent further bleeding. One min before sacrificing the rats, sodium heparin (0.1 ml, 500 IU) was injected again into the dorsal penis vein, exposed in the same way. […] Blood draining and excision of the organs were carried out according to the literature. In detail, blood was collected from the neck of rats hold upside down, immediately after their decapitation, which happened at the time points sharp. Exsanguination took 5 seconds; laparotomy and excision of the liver and the kidneys took 5 more seconds. The post-decapitation procedures were standardised. Urine was collected through the urinary bladder with a syringe before decapitation. Kidneys, liver and brain were washed with mQ water, immediately frozen in liquid nitrogen and stored at −80 °C.
Immediately after sampling, 5 mL of blood were transferred into ice-cold (−20 °C), deoxygenated aqueous 95% methanol in a ratio 1:9 (v/v). The urine was weighted and transferred into ice-cold, deoxygenated aqueous 95% methanol at a ratio of 1:9 (w/v). Frozen kidneys, liver and brain were grounded under cryogenic conditions (−196 °C) to 5 μm particles in a CryoMill (Retsch, Germany), using a single 25 mm i. d. steel ball (30 seconds, 25/sec frequency). The pulverized tissue was rapidly transferred (without thawing) into ice-cold, deoxygenated aqueous 95% methanol at a ratio of 1:9 (w/v). Cinnamic acid-d5, as internal standard, was dissolved in the aqueous methanol at concentration of 0.1 mg/L for the monitoring of the extraction protocol in biofluids and tissues.
All samples were extracted with an orbital shaker for 10 min at room temperature. The methanol extracts were then centrifuged for 5 min at 3600 rpm at 4 °C, decanted under a stream of nitrogen in 50 mL dark glass vessels and stored at −80 °C. Clean-up of extracted samples in methanol was performed by solid phase extraction (SPE), as previously described. Briefly, 5 mL of extracted samples were evaporated on a rotary evaporator and reconstituted in 10 mL of acidified water. Anthocyanins were extracted by solid-phase adsorption onto a hydrophobic matrix (Sep-Pak C18, 0.35 g, Waters, Milford, MA). […]

Amounts found in kidneys (range over sampling times) (0.25–20 min after i.v. 668 nmol C3G): 0.44 to 1.69 nmol/g
Mean concentration in kidneys (0.25 min after i.v. 668 nmol C3G, mean ± SEM n=4): 1.69 ± 0.47 nmol/g
Mean concentration in kidneys (2 min after i.v. 668 nmol C3G): 1.40 ± 0.16 nmol/g
Mean concentration in kidneys (5 min after i.v. 668 nmol C3G): 0.58 ± 0.08 nmol/g
Mean concentration in kidneys (15 min after i.v. 668 nmol C3G): 0.57 ± 0.17 nmol/g
Mean concentration in kidneys (20 min after i.v. 668 nmol C3G): 0.44 ± 0.04 nmol/g
MTTK (Mean Transit time in kidneys) (kidneys): 8.54 min
AUC0-t (kidneys, i.v. 668 nmol C3G): 14.3 nmol·min/g and 14.32 nmol·min/g
half-life (male, Wistar, rat, kidney, iv, 668 nmol, kidneys): 11.7 min
SMILES: OC[C@H]1O[C@@H](Oc2cc3c(O)cc(O)cc3[o+]c2-c2ccc(O)c(O)c2)[C@H](O)[C@@H](O)[C@@H]1O [C3G, Cyanidin-3-O-β-glucoside]
